Source: patent US12643912B2, “Macrocyclic compounds, a process for their preparation and pharmaceutical compositions containing them” (LES LABORATOIRES SERVIER, priority 2020, dated 2026)
Read-outs that look alike come from different tables or passages of the source.

Assays:
[1] = molecular target: T1, Keap1 (A321-C624) (h) (Homo sapiens, UniProt Q14145); experiment: Surface Plasmon Resonance binding assay to Kelch domain of KEAP1; conditions: Biacore T200, 25° C., immobilized His-Thromb-KEAP1(A321-C624), single cycle kinetics, KD=kd/ka from 1:1 fit; read-out: Keap1 (A321-C624) (h) direct/SPR (KD)
T1 construct: His-Thromb-KEAP1(A321-C624) acquired from Novalix (batch PU-P01) was immobilized covalently by amine coupling; His tag (N); thrombin cleavage site (Thromb) (N); purchased Novalix batch PU-P01
T1 sequence (Q14145 321-624): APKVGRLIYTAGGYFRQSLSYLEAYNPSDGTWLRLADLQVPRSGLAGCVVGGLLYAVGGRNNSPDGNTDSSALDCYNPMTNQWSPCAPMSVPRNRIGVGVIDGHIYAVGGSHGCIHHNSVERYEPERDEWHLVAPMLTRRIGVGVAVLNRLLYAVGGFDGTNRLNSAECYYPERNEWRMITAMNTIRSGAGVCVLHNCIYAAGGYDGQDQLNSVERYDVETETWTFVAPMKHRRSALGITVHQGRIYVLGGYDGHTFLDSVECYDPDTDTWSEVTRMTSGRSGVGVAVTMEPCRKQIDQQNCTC
How it was run: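 His-Thromb-KEAP1(A321-C624) amine-coupled on CM5 chip to 1250 RU; amine blank reference. Run at 25° C in HEPES pH 7.4, 150 mM NaCl, 3 mM EDTA, 1 mM TCEP, 0.05% P20, 5% DMSO; 180 s association, 720 s dissociation, 50 μL/min. KD = kd/ka from 1:1 kinetic fit, double-referenced, DMSO solvent-corrected.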

[2] = system: Nrf2 (Keap1-NRF2 nuclear translocation); experiment: U2OS translocation assay (PathHunter U2OS Keap1-NRF2 Nuclear Translocation Cell Line); assay type: cell-based
How it was run: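 Enzyme-fragment complementation read-out: luminescence after 60 min of detection reagent at room temperature, following a 3 h, 37° C compound exposure of engineered U2OS Keap1-NRF2 translocation cells (1% FBS medium). Signal scaled from 1% DMSO basal to 10 μM andrographolide maximum.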

[3] = Homo sapiens, U2OS, 3 h, read-out: CELLULAR U2OS EC50 (nM), U2OS Keap1-NRF2 nuclear translocation cells, 3 h incubation, luminescence, normalized between 1% DMSO and 10 μM andrographolide
[4] = read-out: CELLULAR U2OS EC50, U2OS Keap1-NRF2 nuclear translocation cells, 3 h incubation, luminescence, normalized between 1% DMSO and 10 μM andrographolide

SMILES	Kd [1]	EC50 [2, 3]	EC50 [2, 4]
Cc1ccc2cc1[C@@H](C)N1Cc3cc(ccc3OS1(=O)=O)OCCCCCn1nnc3c(C)c(ccc31)[C@@H]2CC(=O)O [Example 20b, [(2R,8R)-2,4,32-trimethyl-28,28-dioxo-22,27-dioxa-28λ^6-thia-1,14,15,16-tetraazahexacyclo[21.5.3.1^3,70.1^9,130.0^12,160.0^26,30]tritriaconta-3(33),4,6,9(32),10,12,14,23,25,30-decaen-8-yl]acetic acid]	2.3 nM	131 nM	–
Cc1c(Cl)cc2cc1CN1Cc3cc(ccc3OS1(=O)=O)OCCCCn1nnc3c(C)c(ccc31)C2CC(=O)O (single isomer, unassigned) [Example 33b, [5-Chloro-4,31-dimethyl-27,27-dioxo-21,26-dioxa-27λ^6-thia-1,14,15,16-tetraazahexacyclo[20.5.3.1^3,70.1^9,130.0^12,160.0^25,29]dotriaconta-3(32),4,6,9(31),10,12,14,22,24,29-decaen-8-yl]acetic acid]	9.29 nM	–	894 nM
Cc1ccc2cc1CN1Cc3c(ccc(c3Cl)OCCCCn3nnc4c(C)c(cc(Cl)c43)[C@@H]2CC(=O)O)OS1(=O)=O [Example 51, [(8R)-11,30-Dichloro-4,31-dimethyl-27,27-dioxo-21,26-dioxa-27λ^6-thia-1,14,15,16-tetraazahexacyclo[20.5.3.1^3,70.1^9,130.0^12,160.0^25,29]dotriaconta-3(32),4,6,9(31),10,12,14,22,24,29-decaen-8-yl]acetic acid]	2.03 nM	103 nM	–
Cc1ccc2cc1[C@@H](C)N1Cc3cc(ccc3OS1(=O)=O)OCCN(C)CCCn1nnc3c(C)c(ccc31)[C@H]2CC(=O)O [Example 34a, [(2R,8S)-2,4,20,33-tetramethyl-29,29-dioxo-23,28-dioxa-29λ^6-thia-1,14,15,16,20-pentaazahexacyclo[22.5.3.1^3,70.1^9,130.0^12,160.0^27,31]tetratriaconta-3(34),4,6,9(33),10,12,14,24,26,31-decaen-8-yl]acetic acid]	0.49 nM	2.66 nM	–
COc1ccc2cc1CN1Cc3cc(ccc3OS1(=O)=O)OCCOCCn1nnc3c(C)c(ccc31)C2CC(=O)O (single isomer, unassigned) [Example 59a, [4-Methoxy-32-methyl-28,28-dioxo-19,22,27-trioxa-28λ^6-thia-1,14,15,16-tetraazahexacyclo[21.5.3.1^3,70.1^9,130.0^12,160.0^26,30]tritriaconta-3(33),4,6,9(32),10,12,14,23,25,30-decaen-8-yl]acetic acid]	5.07 nM	311 nM	–
Cc1ccc2cc1CN1Cc3cc(ccc3OS1(=O)=O)OCCCCCOc1cc(c(C)c3nnn(C)c13)C2CC(=O)O (single isomer, unassigned) [Example 73a, [4,10,14-Trimethyl-29,29-dioxo-17,23,28-trioxa-29λ^6-thia-1,12,13,14-tetraazahexacyclo[22.5.3.1^3,70.1^9,160.0^11,150.0^27,31]tetratriaconta-3(34),4,6,9(33),10,12,15,24,26,31-decaen-8-yl]acetic acid]	6.23 nM	–	63.4 nM
COc1cc2cc3c1OS(=O)(=O)N(C3)[C@H](C)c1cc(ccc1C)[C@H](CC(=O)O)c1ccc3c(nnn3CCCCO2)c1C [Example 23b, [(2R,8S)-24-methoxy-2,4,31-trimethyl-27,27-dioxo-21,26-dioxa-27λ^6-thia-1,14,15,16-tetraazahexacyclo[20.5.3.1^3,70.1^9,130.0^12,160.0^25,29]dotriaconta-3(32),4,6,9(31),10,12,14,22,24,29-decaen-8-yl]acetic acid]	8.8 nM	344 nM	–
Cc1ccc2cc1CN1Cc3cc(ccc3OS1(=O)=O)OCCCCn1nnc3c(C)c(ccc31)[C@@H]2CC(=O)O [Example 7b, [(8R)-4,31-dimethyl-27,27-dioxo-21,26-dioxa-27λ^6-thia-1,14,15,16-tetraazahexacyclo[20.5.3.1^3,70.1^9,130.0^12,160.0^25,29]dotriaconta-3(32),4,6,9(31),10,12,14,22,24,29-decaen-8-yl]acetic acid]	4.86 nM	290 nM	–
COCCC1CCOc2ccc3c(c2)CN([C@H](C)c2cc(ccc2C)[C@H](CC(=O)O)c2ccc4c(nnn4C1)c2C)S(=O)(=O)O3 (single isomer, unassigned) [Example 24a]	1.1 nM	–	7.28 nM
COCCC1CCOc2ccc3c(c2)CN([C@H](C)c2cc(ccc2C)[C@@H](CC(=O)O)c2ccc4c(nnn4C1)c2C)S(=O)(=O)O3 (single isomer, unassigned) [Example 24d]	4.32 nM	–	36.4 nM
Cc1ccc2cc1[C@@H](C)N1Cc3cc(ccc3OS1(=O)=O)OCCCCn1nnc3c(C)c(ccc31)[C@H]2CC(=O)O [Example 3b, [(2R,8S)-2,4,31-trimethyl-27,27-dioxo-21,26-dioxa-27λ^6-thia-1,14,15,16-tetraazahexacyclo[20.5.3.1^3,70.1^9,130.0^12,160.0^25,29]dotriaconta-3(32),4,6,9(31),10,12,14,22,24,29-decaen-8-yl]acetic acid]	1.05 nM	10.6 nM	–
Cc1ccc2cc1[C@@H](C)N1Cc3cc(ccc3OS1(=O)=O)OCCCN(C)CCn1nnc3c(C)c(ccc31)[C@H]2CC(=O)O [Example 21a, [(2R,8S)-2,4,19,33-Tetramethyl-29,29-dioxo-23,28-dioxa-29λ^6-thia-1,14,15,16,19-pentaazahexacyclo[22.5.3.1^3,70.1^9,130.0^12,160.0^27,31]tetratriaconta-3(34),4,6,9(33),10,12,14,24,26,31-decaen-8-yl]acetic acid]	2.55 nM	10.9 nM	–
Cc1ccc2cc1[C@@H](C)N1Cc3cc(ccc3OS1(=O)=O)OCCOCCCn1nnc3c(C)c(ccc31)[C@@H]2CC(=O)O [Example 26b, [(2R,8R)-2,4,33-trimethyl-29,29-dioxo-20,23,28-trioxa-29λ^6-thia-1,14,15,16-tetraazahexacyclo[22.5.3.1^3,70.1^9,130.0^12,160.0^27,31]tetratriaconta-3(34),4,6,9(33),10,12,14,24,26,31-decaen-8-yl]acetic acid]	12.2 nM	88.8 nM	–
COc1cc2cc3c1OS(=O)(=O)N(Cc1cc(ccc1C)C(CC(=O)O)c1ccc4c(nnn4CCCCO2)c1C)C3 (single isomer, unassigned) [Example 16b, [24-Methoxy-4,31-dimethyl-27,27-dioxo-21,26-dioxa-27λ^6-thia-1,14,15,16-tetraazahexacyclo[20.5.3.1^3,70.1^9,130.0^12,160.0^25,29]dotriaconta-3(32),4,6,9(31),10,12,14,22,24,29-decaen-8-yl]acetic acid]	1.73 nM	–	108 nM
Cc1ccc2cc1CN1Cc3cc(ccc3OS1(=O)=O)OC[C@H](C)CCn1nnc3c(C)c(ccc31)C2CC(=O)O (single isomer, unassigned) [Example 45b]	2.35 nM	–	144 nM
Cc1ccc2cc1[C@@H](C)N1Cc3cc(ccc3OS1(=O)=O)OCCCN(C)CCn1nnc3c(C)c(ccc31)[C@@H]2CC(=O)O [Example 21b, [(2R,8R)-2,4,19,33-tetramethyl-29,29-dioxo-23,28-dioxa-29λ^6-thia-1,14,15,16,19-pentaazahexacyclo[22.5.3.1^3,70.1^9,130.0^12,160.0^27,31]tetratriaconta-3(34),4,6,9(33),10,12,14,24,26,31-decaen-8-yl]acetic acid]	20.8 nM	166 nM	–
Cc1ccc2cc1[C@@H](C)N1Cc3cc(ccc3OS1(=O)=O)OCCCCn1nnc3c(C)c(ccc31)[C@@H]2CC(=O)O [Example 3a, [(2R,8R)-2,4,31-Trimethyl-27,27-dioxo-21,26-dioxa-27λ^6-thia-1,14,15,16-tetraazahexacyclo[20.5.3.1^3,70.1^9,130.0^12,160.0^25,29]dotriaconta-3(32),4,6,9(31),10,12,14,22,24,29-decaen-8-yl]acetic acid]	7.64 nM	79.5 nM	–
COc1ccc2cc1CN1Cc3cc(ccc3OS1(=O)=O)OCCCCn1nnc3c(C)c(ccc31)C2CC(=O)O (single isomer, unassigned) [Example 10a, [4-Methoxy-31-methyl-27,27-dioxo-21,26-dioxa-27λ^6-thia-1,14,15,16-tetraazahexacyclo[20.5.3.1^3,70.1^9,130.0^12,160.0^25,29]dotriaconta-3(32),4,6,9(31),10,12,14,22,24,29-decaen-8-yl]acetic acid]	3.54 nM	–	58.1 nM
Cc1ccc2cc1CN1Cc3cc(ccc3OS1(=O)=O)Oc1ccccc1NCCCn1nnc3c(C)c(ccc31)C2CC(=O)O (single isomer, unassigned) [Example 71a, [4,37-Dimethyl-33,33-dioxo-27,32-dioxa-33λ^6-thia-1,14,15,16,20-pentaazaheptacyclo[26.5.3.1^3,70.1^9,130.0^12,160.0^21,260.0^31,35]octatriaconta-3(38),4,6,9(37),10,12,14,21,23,25,28,30,35-tridecaen-8-yl]acetic acid]	19.3 nM	42 nM	–
